# Reference: ChEMBL document CHEMBL4507319 (2021)
# Columns and labels:
# [1] = test system: SNU-16; test: Snu16 cell line Proliferation assay; format: functional, Homo sapiens; conditions: time 3 day
# [2] = molecular target: T1, Myotonin-protein kinase (Homo sapiens) (UniProt Q09013); test: DMPK(h) Eurofins kinase panel; conditions: Compound concentration 1.0 uM
# T1 sequence (whole entry): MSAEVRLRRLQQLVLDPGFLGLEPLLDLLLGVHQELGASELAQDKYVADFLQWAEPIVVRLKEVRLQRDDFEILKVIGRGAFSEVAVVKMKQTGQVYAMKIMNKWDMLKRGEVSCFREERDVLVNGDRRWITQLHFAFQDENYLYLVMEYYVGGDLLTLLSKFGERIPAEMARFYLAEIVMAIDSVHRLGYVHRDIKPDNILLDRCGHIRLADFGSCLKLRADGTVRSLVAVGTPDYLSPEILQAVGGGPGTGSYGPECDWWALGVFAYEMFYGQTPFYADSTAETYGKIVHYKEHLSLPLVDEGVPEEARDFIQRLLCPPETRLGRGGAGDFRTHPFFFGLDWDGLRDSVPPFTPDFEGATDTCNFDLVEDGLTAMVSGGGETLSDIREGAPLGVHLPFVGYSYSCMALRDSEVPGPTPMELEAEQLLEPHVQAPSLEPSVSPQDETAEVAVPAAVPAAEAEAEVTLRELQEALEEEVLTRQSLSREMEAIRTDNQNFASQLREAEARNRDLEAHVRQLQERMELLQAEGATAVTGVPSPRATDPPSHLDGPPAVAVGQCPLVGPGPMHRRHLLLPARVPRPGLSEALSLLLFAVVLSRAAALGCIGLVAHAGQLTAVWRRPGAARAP
# [3] = molecular target: Insulin-like growth factor 1 receptor (Homo sapiens) (UniProt P08069); test: IGF-1R(h) Eurofins kinase panel; conditions: Compound concentration 1.0 uM
# Chain of Insulin-like growth factor 1 receptor (Homo sapiens) (P08069 31-736 limits assumed): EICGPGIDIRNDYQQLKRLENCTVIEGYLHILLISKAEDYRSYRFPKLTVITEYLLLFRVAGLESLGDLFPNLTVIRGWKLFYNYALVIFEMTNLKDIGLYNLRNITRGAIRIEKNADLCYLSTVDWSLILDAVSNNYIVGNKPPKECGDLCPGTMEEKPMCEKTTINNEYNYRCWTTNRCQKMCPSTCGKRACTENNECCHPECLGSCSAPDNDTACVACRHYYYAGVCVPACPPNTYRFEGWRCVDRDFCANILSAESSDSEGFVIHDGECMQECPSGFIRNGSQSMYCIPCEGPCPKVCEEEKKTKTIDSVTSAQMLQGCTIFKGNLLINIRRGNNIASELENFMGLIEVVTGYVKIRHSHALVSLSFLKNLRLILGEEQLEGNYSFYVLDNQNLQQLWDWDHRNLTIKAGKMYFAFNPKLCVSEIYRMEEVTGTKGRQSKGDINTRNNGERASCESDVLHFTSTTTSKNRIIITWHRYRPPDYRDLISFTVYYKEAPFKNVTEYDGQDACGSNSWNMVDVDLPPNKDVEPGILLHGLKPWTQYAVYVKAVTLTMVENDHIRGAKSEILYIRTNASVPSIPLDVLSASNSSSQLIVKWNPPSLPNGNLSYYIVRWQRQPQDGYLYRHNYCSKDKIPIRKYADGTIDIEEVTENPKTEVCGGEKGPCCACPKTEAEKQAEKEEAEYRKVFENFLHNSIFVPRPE
# Chain of Insulin-like growth factor 1 receptor (Homo sapiens) (P08069 741-1367 limits assumed): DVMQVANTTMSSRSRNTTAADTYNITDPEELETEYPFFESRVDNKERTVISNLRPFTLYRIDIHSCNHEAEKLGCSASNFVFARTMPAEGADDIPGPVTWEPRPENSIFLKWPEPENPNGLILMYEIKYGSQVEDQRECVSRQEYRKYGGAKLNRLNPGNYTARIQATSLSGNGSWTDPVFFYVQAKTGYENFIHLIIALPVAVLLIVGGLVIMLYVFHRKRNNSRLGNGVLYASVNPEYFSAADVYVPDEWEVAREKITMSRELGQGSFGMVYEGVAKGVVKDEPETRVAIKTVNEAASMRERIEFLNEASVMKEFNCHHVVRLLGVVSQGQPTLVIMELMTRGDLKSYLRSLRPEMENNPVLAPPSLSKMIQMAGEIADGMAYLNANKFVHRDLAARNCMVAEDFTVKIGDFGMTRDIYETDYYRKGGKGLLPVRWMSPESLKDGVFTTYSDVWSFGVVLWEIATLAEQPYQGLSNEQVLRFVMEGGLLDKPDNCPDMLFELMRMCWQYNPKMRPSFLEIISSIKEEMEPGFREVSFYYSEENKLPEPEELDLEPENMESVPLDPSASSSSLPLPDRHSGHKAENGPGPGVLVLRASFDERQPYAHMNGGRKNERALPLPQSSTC
# [4] = test system: L-363; test: L-363 cell line Proliferation assay; format: functional, Homo sapiens; conditions: time 3 day
# [5] = molecular target: 5'-AMP-activated protein kinase catalytic subunit alpha-1 (Homo sapiens, UniProt Q13131); conditions: Compound concentration 1.0 uM
# Chain of 5'-AMP-activated protein kinase catalytic subunit alpha-1 (Q13131 whole entry, looked up): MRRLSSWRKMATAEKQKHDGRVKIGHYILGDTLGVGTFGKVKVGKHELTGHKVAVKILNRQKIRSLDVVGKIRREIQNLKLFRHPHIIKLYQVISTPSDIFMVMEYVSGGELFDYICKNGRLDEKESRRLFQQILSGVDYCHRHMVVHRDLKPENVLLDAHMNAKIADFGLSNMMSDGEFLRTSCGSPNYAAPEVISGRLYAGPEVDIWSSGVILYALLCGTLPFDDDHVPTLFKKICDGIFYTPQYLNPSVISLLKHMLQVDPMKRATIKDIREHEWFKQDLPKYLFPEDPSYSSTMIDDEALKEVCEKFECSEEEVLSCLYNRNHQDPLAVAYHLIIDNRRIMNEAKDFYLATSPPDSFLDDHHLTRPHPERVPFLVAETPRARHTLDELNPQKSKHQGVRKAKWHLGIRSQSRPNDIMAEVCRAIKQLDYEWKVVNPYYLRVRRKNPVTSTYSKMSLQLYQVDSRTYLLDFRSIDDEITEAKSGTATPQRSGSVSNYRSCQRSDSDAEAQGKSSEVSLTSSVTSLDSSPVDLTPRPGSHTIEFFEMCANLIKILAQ
# [6] = test system: LS174T; test: LS-174T cell line Proliferation assay; format: functional, Homo sapiens; conditions: time 3 day
# [7] = molecular target: Transient receptor potential cation channel subfamily M member 7 (Homo sapiens) (UniProt Q96QT4); test: ChaK1(h) Eurofins kinase panel; conditions: Compound concentration 1.0 uM
# Chain of Transient receptor potential cation channel subfamily M member 7 (Homo sapiens) (Q96QT4 whole entry): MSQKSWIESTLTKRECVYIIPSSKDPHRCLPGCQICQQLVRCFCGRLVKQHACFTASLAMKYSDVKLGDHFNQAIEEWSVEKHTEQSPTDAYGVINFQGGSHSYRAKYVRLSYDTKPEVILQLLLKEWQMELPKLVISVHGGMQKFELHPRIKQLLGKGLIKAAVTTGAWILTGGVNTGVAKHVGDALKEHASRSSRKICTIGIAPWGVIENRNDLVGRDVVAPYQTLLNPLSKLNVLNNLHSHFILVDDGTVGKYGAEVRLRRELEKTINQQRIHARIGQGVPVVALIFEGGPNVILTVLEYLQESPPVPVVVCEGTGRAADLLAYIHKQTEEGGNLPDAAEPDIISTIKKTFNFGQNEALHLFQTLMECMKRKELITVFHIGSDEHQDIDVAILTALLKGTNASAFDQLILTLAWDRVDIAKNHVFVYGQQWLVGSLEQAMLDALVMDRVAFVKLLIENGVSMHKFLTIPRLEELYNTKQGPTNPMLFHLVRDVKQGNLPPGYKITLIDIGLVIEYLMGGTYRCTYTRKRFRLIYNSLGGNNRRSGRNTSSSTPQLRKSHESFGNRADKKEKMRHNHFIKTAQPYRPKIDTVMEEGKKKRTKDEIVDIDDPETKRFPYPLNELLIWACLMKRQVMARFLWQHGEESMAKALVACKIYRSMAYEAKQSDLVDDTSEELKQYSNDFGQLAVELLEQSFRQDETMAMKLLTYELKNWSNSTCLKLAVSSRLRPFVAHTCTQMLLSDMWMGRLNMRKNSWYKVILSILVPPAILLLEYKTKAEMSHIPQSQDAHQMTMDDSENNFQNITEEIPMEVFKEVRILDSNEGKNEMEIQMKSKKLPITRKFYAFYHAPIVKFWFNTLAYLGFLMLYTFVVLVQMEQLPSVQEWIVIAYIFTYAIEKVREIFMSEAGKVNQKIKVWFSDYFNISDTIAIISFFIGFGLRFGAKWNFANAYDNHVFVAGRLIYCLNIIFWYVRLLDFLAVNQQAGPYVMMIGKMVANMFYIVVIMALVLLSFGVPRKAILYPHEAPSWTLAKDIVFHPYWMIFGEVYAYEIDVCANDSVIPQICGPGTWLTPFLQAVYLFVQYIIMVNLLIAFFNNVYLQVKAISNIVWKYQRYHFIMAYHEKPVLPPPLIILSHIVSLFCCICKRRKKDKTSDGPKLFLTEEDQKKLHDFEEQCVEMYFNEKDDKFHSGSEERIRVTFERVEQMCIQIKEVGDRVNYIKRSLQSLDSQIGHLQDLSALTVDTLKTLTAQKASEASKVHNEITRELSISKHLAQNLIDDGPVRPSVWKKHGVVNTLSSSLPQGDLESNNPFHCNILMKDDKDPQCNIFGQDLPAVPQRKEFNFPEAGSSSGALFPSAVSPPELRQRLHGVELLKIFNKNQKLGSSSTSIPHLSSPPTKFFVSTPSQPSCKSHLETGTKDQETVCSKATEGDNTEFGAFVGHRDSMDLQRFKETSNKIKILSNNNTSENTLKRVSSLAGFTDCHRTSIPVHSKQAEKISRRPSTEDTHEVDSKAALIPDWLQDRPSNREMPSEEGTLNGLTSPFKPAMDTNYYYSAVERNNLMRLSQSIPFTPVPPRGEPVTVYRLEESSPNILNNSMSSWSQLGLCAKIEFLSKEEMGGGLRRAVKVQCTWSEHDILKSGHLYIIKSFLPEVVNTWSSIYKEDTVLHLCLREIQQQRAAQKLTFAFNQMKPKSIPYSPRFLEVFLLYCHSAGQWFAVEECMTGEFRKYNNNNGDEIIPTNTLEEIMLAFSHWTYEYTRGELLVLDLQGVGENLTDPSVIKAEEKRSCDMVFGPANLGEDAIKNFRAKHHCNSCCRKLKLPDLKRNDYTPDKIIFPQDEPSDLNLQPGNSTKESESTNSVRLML
# [8] = molecular target: Phosphatidylinositol 5-phosphate 4-kinase type-2 alpha (Homo sapiens) (UniProt P48426); test: PIP4K2a(h) Eurofins kinase panel; conditions: Compound concentration 1.0 uM
# Chain of Phosphatidylinositol 5-phosphate 4-kinase type-2 alpha (Homo sapiens) (P48426 whole entry): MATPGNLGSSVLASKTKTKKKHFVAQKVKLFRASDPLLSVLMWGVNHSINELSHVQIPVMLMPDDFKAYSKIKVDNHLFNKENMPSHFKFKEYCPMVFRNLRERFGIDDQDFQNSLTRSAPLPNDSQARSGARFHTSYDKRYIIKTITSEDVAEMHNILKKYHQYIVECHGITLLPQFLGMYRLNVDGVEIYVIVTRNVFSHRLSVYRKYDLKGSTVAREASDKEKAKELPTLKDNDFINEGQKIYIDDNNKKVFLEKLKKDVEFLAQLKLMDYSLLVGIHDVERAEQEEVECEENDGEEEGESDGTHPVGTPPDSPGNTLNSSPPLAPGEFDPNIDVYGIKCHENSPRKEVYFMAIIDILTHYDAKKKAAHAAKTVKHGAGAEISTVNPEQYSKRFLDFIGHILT
# [9] = test system: A-375; test: A375 cell line Proliferation assay; format: functional, Homo sapiens; conditions: time 3 day
# [10] = molecular target: T2, Serine/threonine-protein kinase BRSK1 (Homo sapiens) (UniProt Q8TDC3); test: BrSK1(h) Eurofins kinase panel; conditions: Compound concentration 1.0 uM
# T2 sequence (whole entry): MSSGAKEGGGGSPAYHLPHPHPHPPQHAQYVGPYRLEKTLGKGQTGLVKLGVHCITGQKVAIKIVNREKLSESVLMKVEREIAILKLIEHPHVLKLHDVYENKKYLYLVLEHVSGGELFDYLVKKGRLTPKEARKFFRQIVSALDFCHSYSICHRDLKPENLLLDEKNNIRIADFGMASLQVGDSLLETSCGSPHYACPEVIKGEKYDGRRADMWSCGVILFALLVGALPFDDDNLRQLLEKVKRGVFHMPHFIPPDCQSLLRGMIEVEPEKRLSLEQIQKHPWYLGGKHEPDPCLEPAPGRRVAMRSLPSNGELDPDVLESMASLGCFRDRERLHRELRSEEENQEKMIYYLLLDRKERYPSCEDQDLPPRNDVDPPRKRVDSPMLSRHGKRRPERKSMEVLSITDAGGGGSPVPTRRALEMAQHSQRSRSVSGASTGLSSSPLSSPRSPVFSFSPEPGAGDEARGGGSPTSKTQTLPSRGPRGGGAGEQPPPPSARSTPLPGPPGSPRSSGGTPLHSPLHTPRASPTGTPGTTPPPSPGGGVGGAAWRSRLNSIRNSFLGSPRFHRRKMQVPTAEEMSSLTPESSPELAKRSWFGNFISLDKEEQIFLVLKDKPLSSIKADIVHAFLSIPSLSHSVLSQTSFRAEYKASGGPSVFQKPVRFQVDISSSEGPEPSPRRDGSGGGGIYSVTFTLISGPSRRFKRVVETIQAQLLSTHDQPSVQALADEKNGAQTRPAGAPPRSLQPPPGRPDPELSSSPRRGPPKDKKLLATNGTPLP
# [11] = molecular target: T3, MAP/microtubule affinity-regulating kinase 4 (Homo sapiens) (UniProt Q96L34); test: MARK4(h) Eurofins kinase panel; conditions: Compound concentration 1.0 uM
# T3 sequence (whole entry): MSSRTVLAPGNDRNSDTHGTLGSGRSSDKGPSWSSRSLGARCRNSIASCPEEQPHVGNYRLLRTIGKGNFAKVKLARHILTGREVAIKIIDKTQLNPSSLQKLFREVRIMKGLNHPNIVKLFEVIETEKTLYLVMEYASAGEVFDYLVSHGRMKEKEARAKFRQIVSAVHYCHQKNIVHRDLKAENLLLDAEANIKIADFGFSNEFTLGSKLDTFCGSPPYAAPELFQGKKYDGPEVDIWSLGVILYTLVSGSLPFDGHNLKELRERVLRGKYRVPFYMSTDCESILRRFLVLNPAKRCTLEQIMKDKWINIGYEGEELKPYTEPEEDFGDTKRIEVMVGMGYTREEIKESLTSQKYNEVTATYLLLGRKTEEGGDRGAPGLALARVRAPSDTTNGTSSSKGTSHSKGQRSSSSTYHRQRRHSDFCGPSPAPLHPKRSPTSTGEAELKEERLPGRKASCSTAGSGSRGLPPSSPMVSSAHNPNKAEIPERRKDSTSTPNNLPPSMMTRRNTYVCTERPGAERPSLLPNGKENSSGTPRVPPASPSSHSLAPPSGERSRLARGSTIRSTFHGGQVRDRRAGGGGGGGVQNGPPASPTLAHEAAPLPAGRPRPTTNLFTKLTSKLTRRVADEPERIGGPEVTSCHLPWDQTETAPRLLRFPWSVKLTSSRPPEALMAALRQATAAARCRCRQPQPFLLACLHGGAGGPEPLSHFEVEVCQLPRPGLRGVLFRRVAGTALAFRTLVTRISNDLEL
# [12] = molecular target: MAP kinase-activated protein kinase 3 (Homo sapiens) (UniProt Q16644); test: MAPKAP-K3(h) Eurofins kinase panel; conditions: Compound concentration 1.0 uM
# Chain of MAP kinase-activated protein kinase 3 (Homo sapiens) (Q16644 whole entry, looked up): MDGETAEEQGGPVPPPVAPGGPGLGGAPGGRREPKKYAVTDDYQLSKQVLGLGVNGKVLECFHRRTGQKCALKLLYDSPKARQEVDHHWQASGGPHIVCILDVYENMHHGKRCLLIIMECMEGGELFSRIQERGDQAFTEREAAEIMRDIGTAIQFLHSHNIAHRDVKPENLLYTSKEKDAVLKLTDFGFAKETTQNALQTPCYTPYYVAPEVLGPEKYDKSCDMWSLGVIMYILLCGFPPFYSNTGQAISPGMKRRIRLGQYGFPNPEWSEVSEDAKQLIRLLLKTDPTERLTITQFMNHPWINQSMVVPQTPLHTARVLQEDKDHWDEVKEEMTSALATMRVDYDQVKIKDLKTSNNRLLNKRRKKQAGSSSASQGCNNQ
# [13] = molecular target: Histamine H2 receptor (Homo sapiens) (UniProt P25021); conditions: Compound concentration 10.0 uM
# Chain of Histamine H2 receptor (Homo sapiens) (P25021 whole entry): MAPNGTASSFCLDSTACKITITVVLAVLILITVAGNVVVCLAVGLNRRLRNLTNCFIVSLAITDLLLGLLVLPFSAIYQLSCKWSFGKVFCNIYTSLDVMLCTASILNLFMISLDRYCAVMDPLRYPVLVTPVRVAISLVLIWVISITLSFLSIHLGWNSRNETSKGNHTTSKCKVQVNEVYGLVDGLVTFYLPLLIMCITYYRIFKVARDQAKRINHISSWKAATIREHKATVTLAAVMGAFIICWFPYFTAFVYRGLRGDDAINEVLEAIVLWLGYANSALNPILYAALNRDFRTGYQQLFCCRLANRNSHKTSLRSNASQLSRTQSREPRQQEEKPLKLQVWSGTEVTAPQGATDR
SMILES,Cell Proliferation IC50 [1] [µM],% residual kinase activity [2] [%],% residual kinase activity [3] [%],Cell Proliferation IC50 [4] [µM],% residual kinase activity [5] [%],Cell Proliferation IC50 [6] [µM],% residual kinase activity [7] [%],% residual kinase activity [8] [%],Cell Proliferation IC50 [9] [µM],% residual kinase activity [10] [%],% residual kinase activity [11] [%],% residual kinase activity [12] [%],inhibition [13] [%]
CCc1ccccc1C(=O)Nc1n[nH]c2c(C)c(F)c(C3C(C#N)=C(C)N(C)C(C)=C3C#N)cc12 [BAY-3827],11.6,91,110,10.8,1,>30,100,105,22.8,64,65,106,
CC1=C(C#N)C(c2ccc3c(c2)c(NC(=O)c2ccccc2C)nn3C)C(C#N)=C(C)N1 [BAY-974],,,,,,,,,,,,,8.7
